Reference: patent US20110319266A1, “HERBICIDAL COMPOSITION” (priority 2009, published 2011)
“And” between values parts separate entries of the source, which are not always exact repeats. Equal values may be shown once. Read-outs that look alike come from different tables or passages of the source.

Key:
Type in all cases: in vivo
[1] = test system: Sinapis arvensis; assay: Test Example 1: greenhouse spray test, herbicidal effect on Sinapis arvensis
Description: (§1) A plastic cup with a diameter of 8 cm and a depth of 6.5 cm was filled with soil. Seeds of wheat (Triticum aestivum) and one or more kinds of test plant selected from Alopecurus myosuroides, Lolium multiflorum, Setaria viridis, Sinapis arvensis and Stellaria media were sowed in the cup, and then grown in a greenhouse until Triticum aestivum was grown in the second to third leaf stage. Then, a test dilution containing predetermined amounts of the present compound, a compound selected from Group A and a compound selected from Group B was sprayed onto the whole plants uniformly. The test dilution was prepared by dissolving a predetermined amount of each compound in a 2% solution of Tween 20 (polyoxyethylene sorbitan fatty acid ester, MP Biomedicals, Inc.) in dimethylformamide and then diluting the solution with water, and then mixing the respective water dilutions thus obtained of the present compound, a compound selected from Group A and a compound selected from Group B. After the spray treatment, the plants were grown in a greenhouse for 21 days. The herbicidal effect was rated in 101 levels from 0 (no effect) to 100 (complete death).

[2] = test system: Setaria viridis; assay: Test Example 1: greenhouse spray test, herbicidal effect on Setaria viridis
Description: as §1

[3] = test system: Triticum aestivum
Description: as §1, with “days.” for “days. The herbicidal effect was rated in 101 levels from 0 (no effect) to 100 (complete death).”

[4] = test system: Lolium multiflorum; assay: Test Example 1: greenhouse spray test, herbicidal effect on Lolium multiflorum
Description: as §1, with “days.” for “days. The herbicidal effect was rated in 101 levels from 0 (no effect) to 100 (complete death).”

[5] = test system: Stellaria media; assay: Test Example 1: greenhouse spray test, herbicidal effect on Stellaria media
Description: as §1, with “days.” for “days. The herbicidal effect was rated in 101 levels from 0 (no effect) to 100 (complete death).”

[6] = test system: Alopecurus myosuroides; assay: Test Example 1: greenhouse spray test, herbicidal effect on Alopecurus myosuroides
Description: as §1

[7] = amount of chemical 20 g/ha, 21 days after spray, scale 0 (no effect) to 100 (complete death)
[8] = amount of chemical 200 g/ha, 21 days after spray, scale 0 (no effect) to 100 (complete death)
[9] = Lolium multiflorum, 504 h, read-out: herbicidal effect on Lolium multiflorum
[10] = amount of chemical 6.3 g/ha, 21 days after spray, scale 0 (no effect) to 100 (complete death)
[11] = Lolium multiflorum, 504 h, amount of chemical 6.3 g/ha, 21 days after spray, scale 0 (no effect) to 100 (complete death), read-out: herbicidal effect on Lolium multiflorum
[12] = amount of chemical 5 g/ha, 21 days after spray, scale 0 (no effect) to 100 (complete death)
[13] = amount of chemical 0.1 g/ha, 21 days after spray, scale 0 (no effect) to 100 (complete death)
[14] = amount of chemical 0.2 g/ha, 21 days after spray, scale 0 (no effect) to 100 (complete death)
[15] = amount of chemical 25 g/ha, 21 days after spray, scale 0 (no effect) to 100 (complete death)
[16] = amount of chemical 3.1 g/ha, 21 days after spray, scale 0 (no effect) to 100 (complete death)
[17] = amount of chemical 0.25 g/ha, 21 days after spray, scale 0 (no effect) to 100 (complete death)

In the case of `O=C(O)COc1ccc(Cl)cc1Cl` [2,4-D], the “herbicidal effect on Sinapis arvensis” value ([1]; amount of chemical 25 g/ha) was 80, the “herbicidal effect on Setaria viridis” value ([2]; amount of chemical 25 g/ha) was 0 and the “herbicidal effect on Triticum aestivum” value ([3]; amount of chemical 25 g/ha) was 0.

With `N#Cc1cc(Br)c(O)c(Br)c1` [Bromoxynil, bromoxynil] the “herbicidal effect on Triticum aestivum” value [3, 7] was 0, the “herbicidal effect on Triticum aestivum” value [3, 8] was 5 and the pest or weed control at 20 g/ha [4, 9] was 0%. The pest or weed control at 200 g/ha [4, 9] was 0%, the “herbicidal effect on Stellaria media” value [5, 7] was 0 and the “herbicidal effect on Stellaria media” value [5, 8] was 10.

`COc1nc(C)nc(NC(=O)NS(=O)(=O)c2ccccc2Cl)n1` [Chlorsulfuron] was tested, and the “herbicidal effect on Alopecurus myosuroides” value ([6]; amount of chemical 1 g/ha) was 0.

With `O=C(O)c1nc(Cl)ccc1Cl` [Clopyralid] the “herbicidal effect on Alopecurus myosuroides” value ([6]; amount of chemical 100 g/ha) was 0 and the “herbicidal effect on Triticum aestivum” value ([3]; amount of chemical 100 g/ha) was 0.

In the case of `CCCCCC(C)OC(=O)COc1ccc(Cl)c2cccnc12` (stereo not drawn) [Cloquintocet-mexyl, cloquintocet-mexyl], the “herbicidal effect on Sinapis arvensis” value [1, 10] was 0, the “herbicidal effect on Alopecurus myosuroides” value ([6]; amount of chemical 6.3 g/ha) was 0 and the “herbicidal effect on Alopecurus myosuroides” value [6, 10] was 0. For the same compound, the pest or weed control at 6.3 g/ha [4, 11] was 0% and the “herbicidal effect on Stellaria media” value [5, 10] was 0.

`COc1c(Cl)ccc(Cl)c1C(=O)O` [Dicamba] gave a pest or weed control at 50 g/ha ([4]; Lolium multiflorum, 504 h, amount of chemical 50 g/ha) of 0%.

In the case of `CCOC(=O)c1nc(C(Cl)(Cl)Cl)n(-c2ccc(Cl)cc2Cl)n1` [Fenchlorazole-ethyl, fenchlorazole-ethyl], the “herbicidal effect on Sinapis arvensis” value [1, 12] was 0, the “herbicidal effect on Sinapis arvensis” value ([1]; amount of chemical 6.3 g/ha) was 0 and the “herbicidal effect on Setaria viridis” value ([2]; amount of chemical 6.3 g/ha) was 0. It also gave a pest or weed control at 5 g/ha ([4]; Lolium multiflorum, 504 h, amount of chemical 5 g/ha, 21 days after spray, scale 0 (no effect) to 100 (complete death)) of 0% and a pest or weed control at 6.3 g/ha [4, 11] of 0%.

With `COc1ncc(F)c2nc(S(=O)(=O)Nc3c(F)cccc3F)nn12` [Florasulam, florasulam] the “herbicidal effect on Triticum aestivum” value ([3]; amount of chemical 0.1 g/ha) was 0, the “herbicidal effect on Triticum aestivum” value [3, 13] was 0 and the “herbicidal effect on Triticum aestivum” value [3, 14] was 0. For the same compound, the “herbicidal effect on Lolium multiflorum” value ([4]; amount of chemical 0.1 g/ha) was 0, the “herbicidal effect on Lolium multiflorum” value [4, 13] was 0 and the “herbicidal effect on Lolium multiflorum” value [4, 14] was 0.

`Nc1c(Cl)c(F)nc(OCC(=O)O)c1Cl` [Fluroxypyr] was tested, and the “herbicidal effect on Alopecurus myosuroides” value [6, 15] was 0, the “herbicidal effect on Triticum aestivum” value [3, 15] was 0 and the “herbicidal effect on Stellaria media” value [5, 15] was 40.

`CCc1cc(C)cc(CC)c1-c1c(O)c(C)nn(C)c1=O` [I-a-14, 4-(2,6-diethyl-4-methylphenyl)-5-hydroxy-2,6-dimethyl-3(2H)-pyridazinone] was tested, and the “herbicidal effect on Sinapis arvensis” value [1, 15] was 60, the “herbicidal effect on Alopecurus myosuroides” value [6, 15] was 90 and the pest or weed control at 25 g/ha ([4]; Lolium multiflorum, 504 h, amount of chemical 25 g/ha, 21 days after spray, scale 0 (no effect) to 100 (complete death)) was 90%. The “herbicidal effect on Stellaria media” value [5, 15] was 50.

`CCc1cc(CC)c(-c2c(O)c(C)nn(C)c2=O)c(CC)c1` [I-a-17] was tested, and the “herbicidal effect on Sinapis arvensis” value [1, 12] was 30, the “herbicidal effect on Triticum aestivum” value [3, 12] was 5 and the “herbicidal effect on Lolium multiflorum” value [4, 12] was 10.

`CCc1cc(C)cc(C)c1-c1c(O)c(C)nn(C)c1=O` [I-a-18] was tested, and the “herbicidal effect on Triticum aestivum” value [3, 10] was 5, the “herbicidal effect on Lolium multiflorum” value [4, 10] was 60 and the “herbicidal effect on Stellaria media” value [5, 10] was 5.

With `CCc1cc(C)cc(CC)c1-c1c(OC(C)=O)c(C)nn(C)c1=O` [I-b-14] the “herbicidal effect on Triticum aestivum” value [3, 10] was 5 and the “herbicidal effect on Lolium multiflorum” value [4, 10] was 70.

For `CCOC(=O)Oc1c(C)nn(C)c(=O)c1-c1c(CC)cc(C)cc1CC` [I-b-18], the “herbicidal effect on Triticum aestivum” value ([3]; amount of chemical 25 g/ha) was 10, the “herbicidal effect on Triticum aestivum” value [3, 15] was 10 and the “herbicidal effect on Lolium multiflorum” value ([4]; amount of chemical 25 g/ha) was 30. For the same compound, the “herbicidal effect on Lolium multiflorum” value [4, 15] was 30 and the “herbicidal effect on Stellaria media” value ([5]; amount of chemical 25 g/ha) was 5.

`CCc1cc(C)cc(CC)c1-c1c(OC(=O)OC)c(C)nn(C)c1=O` [I-b-25] was tested, and the “herbicidal effect on Sinapis arvensis” value ([1]; amount of chemical 25 g/ha) was 20, the “herbicidal effect on Setaria viridis” value ([2]; amount of chemical 25 g/ha) was 95 and the “herbicidal effect on Triticum aestivum” value ([3]; amount of chemical 25 g/ha) was 5.

For `CCOC(=O)Oc1c(C)nn(C)c(=O)c1-c1c(C)cc(C)cc1CC` [I-b-35], the “herbicidal effect on Alopecurus myosuroides” value ([6]; amount of chemical 25 g/ha) was 50 and the “herbicidal effect on Triticum aestivum” value ([3]; amount of chemical 25 g/ha) was 10.

`CCc1cc(CC)c(-c2c(OC(=O)OC)c(C)nn(C)c2=O)c(CC)c1` [I-b-36] was tested, and the “herbicidal effect on Alopecurus myosuroides” value ([6]; amount of chemical 25 g/ha) was 50 and the “herbicidal effect on Triticum aestivum” value ([3]; amount of chemical 25 g/ha) was 10.

With `CCOC(=O)C1=NN(c2ccc(Cl)cc2Cl)C(C)(C(=O)OCC)C1` (stereo not drawn) [Mefenpyr-diethyl, mefenpyr-diethyl] the “herbicidal effect on Triticum aestivum” value [3, 16] was 0, the “herbicidal effect on Triticum aestivum” value ([3]; amount of chemical 6.3 g/ha) was 0 and the “herbicidal effect on Triticum aestivum” value [3, 10] was 0. The pest or weed control at 3.1 g/ha [4, 9] was 0%, the pest or weed control at 6.3 g/ha [4, 9] was 0% and the “herbicidal effect on Lolium multiflorum” value ([4]; amount of chemical 6.3 g/ha) was 0. The “herbicidal effect on Stellaria media” value [5, 16] was 0, the “herbicidal effect on Stellaria media” value ([5]; amount of chemical 6.3 g/ha) was 0 and the “herbicidal effect on Stellaria media” value [5, 10] was 0.

With `COC(=O)c1ccccc1S(=O)(=O)NC(=O)Nc1nc(C)nc(OC)n1` [Metsulfuron-methyl, metsulfuron-methyl] the “herbicidal effect on Sinapis arvensis” value [1, 13] was 70, the “herbicidal effect on Triticum aestivum” value [3, 13] was 0 and the pest or weed control at 0.1 g/ha ([4]; Lolium multiflorum, 504 h, amount of chemical 0.1 g/ha, 21 days after spray, scale 0 (no effect) to 100 (complete death)) was 0%.

For `Cc1nn(C)c(O)c1C(=O)c1ccc(C(F)(F)F)cc1S(C)(=O)=O` [Pyrasulfotole, pyrasulfotole], the “herbicidal effect on Sinapis arvensis” value [1, 7] was 70, the “herbicidal effect on Triticum aestivum” value [3, 7] was 15 and the “herbicidal effect on Lolium multiflorum” value [4, 7] was 0.

For `COC(=O)c1sccc1S(=O)(=O)NC(=O)Nc1nc(C)nc(OC)n1` [Thifensulfuron-methyl, thifensulfuron-methyl], the “herbicidal effect on Stellaria media” value ([5]; amount of chemical 1 g/ha) was 50.

In the case of `COC(=O)c1ccccc1S(=O)(=O)NC(=O)N(C)c1nc(C)nc(OC)n1` [Tribenuron-methyl, tribenuron-methyl], the “herbicidal effect on Triticum aestivum” value [3, 17] was 0, the pest or weed control at 0.25 g/ha ([4]; Lolium multiflorum, 504 h, amount of chemical 0.25 g/ha, 21 days after spray, scale 0 (no effect) to 100 (complete death)) was 0% and the “herbicidal effect on Stellaria media” value [5, 17] was 90 and 80.
